Literature values, collected in US7208487B2, “Compounds, compositions and methods” (Cytokinetics, Incorporated, priority 2002, dated 2007).

Test system: A549 cells

| Compound | GI50 [nM] |
| --- | --- |
| O=c1[nH]cc(F)c(=O)[nH]1 [5-fluorouracil] | 1000 |
| COc1cccc2c1C(=O)c1c(O)c3c(c(O)c1C2=O)C[C@@](O)(C(=O)CO)C[C@@H]3O[C@H]1C[C@H](N)[C@H](O)[C@H](C)O1 [doxorubicin] | 63 |
| NC(=O)NO [hydroxyurea] | 500000 |
| CC(=O)O[C@H]1C(=O)[C@@]2(C)[C@H]([C@H](OC(=O)c3ccccc3)[C@]3(O)C[C@H](OC(=O)[C@H](O)[C@@H](NC(=O)c4ccccc4)c4ccccc4)C(C)=C1C3(C)C)[C@]1(OC(C)=O)CO[C@@H]1C[C@@H]2O [paclitaxel] | 4 |
